Assay results reported in US20240307309A1, “ZWITTERIONIC LIPID NANOPARTICLE COMPOSITIONS, AND METHODS OF USE” (CORNELL UNIVERSITY, priority 2020, published 2024).

Assay: Accelerated blood clearance (ABC) effect, hEPO serum PK after multiple LNP injections (ELISA)
Format: in vivo, C57BL/6J mice
Details: PCB-LNP containing the lipid; intravenous, 5 μg mRNA; third injection; compared to MC3 formulations
Method: Accelerated blood clearance (ABC) effect has been reported in cases where LNPs were injected multiple times with rapid clearance of LNPs observed in the subsequent injections. […] In this example, PCB-LNP containing ZW-B-CBn from Example 7 were used to study the ABC effect of LNPs. MC3-based PEG-LNP from Example 2 was used as a control.
For in vivo pharmacokinetic (PK) study, male C57BL/6J mice aged 3-4 weeks in groups of three were administered intravenously with mRNA-LNP at a dosage of 5 μg of mRNA. Two different injection cohorts were performed. (FIG. 15a) In cohort 1, only one dose of hEPO-mRNA (human erythropoietin mRNA) was given. In cohort 2, Fluc-mRNA ([…]) was dosed for the first two injections, and hEPO-mRNA for the last injection. (FIG. 15a) Cohort 2 was designed in a way to eliminate anti-hEPO immune response induced from first two injections, and thereby the PK profile of hEPO in the third injection is mainly indicating the ABC effect due to LNP components. To determine the PK profile of hEPO, mice sera were collected at 6-hour, 24-hour post-injection, and analyzed using ELISA (DuoSet, hEPO ELISA kit, R&D).

| ABC effect (hEPO serum concentration, injection cohort 2 versus cohort 1) | Compound |
| --- | --- |
| less ABC effect | CCCCCCCCCOC(=O)CCCCCCCN(CCCCCCCC(=O)OC(CCCCCCCC)CCCCCCCCC)CCC(=O)O (centres unmarked) [ZW-B-CB2, 3-((8-(nonyloxy)-8-oxooctyl)(8-(octadecan-9-yloxy)-8-oxooctyl)amino)propanoic acid] |
| less ABC effect | CCCCCCCCCOC(=O)CCCCCCCN(CCCCCCCC(=O)OC(CCCCCCCC)CCCCCCCCC)CC(=O)O (centres unmarked) [ZW-B-CB1, N-(8-(nonyloxy)-8-oxooctyl)-N-(8-(octadecan-9-yloxy)-8-oxooctyl)glycine] |
